Reference: patent publication US6764854B2, “Methods for generating doubled haploid plants” (Northwest Plant Breeding Company, priority 1998, dated 2004)
Several values for one entry are separate records, joined by “and”; a condition that tells them apart may be missing. Equal values may be shown once.

Tests used:
[1] = tested on: microspores of wheat cultivar Chris; experiment: Effect of 2-HNA concentration on embryoid induction and green plant regeneration (Example 2); assay type: cell-based
Procedure: (§1) Pretreatment of Spikes. After removing the lower nodal section, the collected tillers are placed in an autoclaved sterile flask, containing 50 ml of sterile (autoclaved) distilled water and preferably 0.1% (w/v) 2-HNA and 10^−6 to 10^−5 M 2,4-D. The open end of a plastic bag (thin-walled, grocery store bag) is then wrapped around the neck of the flask and sealed around the neck with masking tape to prevent microbial contamination and excessive loss of water. The flask is then placed in an incubator set at the desired stress temperature, optionally 33° C., but the temperature employed may be higher or lower. The optimum period of pretreatment varies with the genotype, but is preferably from between about 0.5 hours and about 72 hours, depending on the temperature. A presently preferred temperature pretreatment regime is from about 48 hours to about 72 hours at a temperature of about 33° C. The flask containing tillers can also be stored in a refrigerator at 4° C. for up to 1 month before subjecting the microspores to temperature stress treatment. It is important that after the temperature stress treatment, the tillers should not be stored in a refrigerator at 4° C. because the microspore viability goes down sharply.
(§2) Culture of isolated microspores. Isolated microspores are cultured in liquid NPB 98-1 medium or liquid NPB-99 medium, preferably liquid NPB-99 medium, as a suspension culture. An aliquot of 2 ml media per 35 mm×10 mm Petri dish, or 5 ml media per 60 mm×15 mm Petri dish, at a density of approximately 1.5×10^4 microspores per ml is effective. Immature ovaries are added to the culture at a density of one per ml of medium immediately preceding the incubation. Ovaries are aseptically picked out from fresh and disinfected spikes. Ovaries of all genotypes are effective for the present invention, but the ovaries from varieties Chris or Pavon 76 are preferred for embryogenesis of all wheat varieties tested. The Petri dish is sealed with parafilm and incubated in the dark at 27° C.
(§3) When embryoids reach the size of 1 to 2 mm, they are transferred aseptically to solid 190-2 or 190-2(b) medium, preferably 190-2(b) medium, at a density of 25-30 embryoids in each 100×15 mm Petri dish. They are incubated under continuous fluorescent light at room temperature (22° C.). In approximately two weeks, green plantlets develop and are ready for transfer to soil. Green plants are raised in the greenhouse, much like plants grown from seeds. If plants appear to be haploid, colchicine can be applied to induce chromosome doubling. Seeds produced on any plants are instantly homozygous, and so can immediately be used for rapid evaluation and selection in breeding, for analyses in genetics research, or for selection and evaluation of transformants in biotechnology.
Experiments were conducted to evaluate the effect of 2-HNA on embryoid induction and green plant regeneration. Plant material was treated in accordance with the methods set forth in Example 1, except as described herein. Tillers of wheat cultivar Chris were treated with 2-HNA at concentrations of 0, 1, 10 or 100 mg/l. Three tillers were utilized for each concentration of 2-HNA.
Chris tillers were placed in sterile flasks and incubated with 2-HNA dissolved in sterile water at 33° C. for 66 hours before blending to release the microspores. As an option to ease the work schedule, newly sampled tillers may be incubated with 2-HNA at 4° C. for up to 72 hrs prior to the 33° C. treatment. Isolated microspores were cultured in 60×15 mm Petri dishes each containing 5 ml of medium NPB 98-1, including 1 mg/l phenylacetic acid (PAA) and incubated at 27° C. The regeneration medium was 190-2. Five fresh, live, Chris ovaries per Petri dish were included in each Petri dish.

[2] = tested on: microspores of wheat cultivar Pavon 76; experiment: Optimization of 2-HNA concentration, embryoid yield and green plants (Example 3); assay type: cell-based
Procedure: as §1, §2, §3
(§4) Experiments were conducted to optimize the amount of 2-HNA utilized to stimulate androgenesis and regeneration of green plants. Plant material was treated in accordance with the methods set forth in Example 1, except as described herein. Tillers of wheat cultivar Pavon 76 were treated with 2-HNA at concentrations of 0, 100, 500 or 1000 mg/l. Two tillers were utilized per treatment.
Tillers were placed in sterile flasks containing 50 ml 2-HNA solution and incubated at 33° C. for 46 hours before blending to release microspores. Microspores were again cultured in 60×15 mm Petri dishes, each containing 5 ml medium NPB 98-1 and incubated at 27° C. The regeneration medium was 190-2. Five fresh, live, immature Pavon 76 ovaries per Petri dish were included in each Petri dish.

Pavon 76 microspores = experiment: Optimization of 2,4-D concentration, embryoid yield, green plants and doubled haploids (Example 5); assay type: cell-based, wheat
Procedure: as §1, §2, §3
as §4, with “2,4-D” for “2-HNA”, “induce” for “stimulate”, “Spikes” for “Tillers”, “0.2, 2.2,” for “100, 500”, “22.1 mg/l plus a fixed dose of 2-HNA at 100” for “1000”, “spikes” for “tillers”
Spikes were incubated in sterile flasks with 2-HNA plus different doses of 2,4-D. The flasks were incubated at 33° C. for 46 hours before blending to release microspores. Microspores were cultured in 6-cm Petri dishes, each containing 5 ml medium NPB 98-1 plus 0 or 0.2 mg/l 2,4-D and incubated at 27° C. The regeneration medium was 190-2. Five fresh, live, immature Chris ovaries per Petri dish were included in each Petri dish.

[3] = tested on: microspores of wheat cultivar Chris; experiment: Optimization of 2,4-D concentration, embryoid yield and green plants (Example 4); assay type: cell-based
Procedure: as §1, §2, §3
as §4, with “2,4-D” for “2-HNA”, “enhance” for “stimulate”, “Chris” for “Pavon 76”, “0.2, 22.1,” for “0, 100, 500”, “221 mg/l plus a fixed dose of 2-HNA at 100” for “1000”
Tillers in flasks with 2-HNA, plus different 2,4-D doses were placed at 33° C. for 70 hours before blending to release microspores. Microspores were cultured in 60×15 mm Petri dishes, each containing 5 ml medium NPB 98-1 plus 1 mg/l 2,4-D and incubated at 27° C. The regeneration medium was 190-2. Five fresh, live, immature Chris ovaries per Petri dish were included in each Petri dish.

[4] = 2-HNA 100 mg/l, % of embryoids transferred to regeneration medium, single repeats
[5] = pretreatment 2-HNA 100 mg/l, 2,4-D 0 mg/l, mean
[6] = pretreatment 2,4-D 0.2 mg/l + 2-HNA 100 mg/l, mean
[7] = pretreatment 2,4-D 0.2 mg/l + 2-HNA 100 mg/l, single repeats
[8] = pretreatment 2,4-D 22.1 mg/l + 2-HNA 100 mg/l, mean
[9] = pretreatment 2,4-D 22.1 mg/l + 2-HNA 100 mg/l, single repeats
[10] = pretreatment 2,4-D 2.2 mg/l + 2-HNA 100 mg/l, mean
[11] = pretreatment 2,4-D 2.2 mg/l + 2-HNA 100 mg/l, single repeats

O=C(O)c1cccnc1O [2-HNA, 2-hydroxynicotinic acid]
number of induced embryoids, dependence on concentration ([1]; 2-HNA 0, 1, 10 or 100 mg/l): increases with increasing concentrations of 2-HNA
percentage of regenerated green plants, dependence on concentration ([1]; 2-HNA 0, 1, 10 or 100 mg/l): does not significantly differ
green plant (%) ([1]; 2-HNA 1 mg/l, % of embryoids transferred to regeneration medium, single repeats): 100%
Number of embryoids ([1]; 2-HNA 1 mg/l, mean): 118
green plant (%) ([1]; 2-HNA 1 mg/l, mean): 100%
green plant (%) ([1]; 2-HNA 10 mg/l, % of embryoids transferred to regeneration medium, single repeats): 94% and 100%
Number of embryoids ([1]; 2-HNA 10 mg/l, mean): 322
green plant (%) ([1]; 2-HNA 10 mg/l, mean): 97%
Number of embryoids ([1]; 2-HNA 100 mg/l, 33° C. 66 hours, single repeats (rep 1, rep 2)): 1258 and 1217
green plant (%) [1, 4]: 100%
Number of embryoids ([1]; 2-HNA 100 mg/l, mean): 1238
green plant (%) ([1]; 2-HNA 100 mg/l, mean): 100%
green plant (%) [2, 4]: 60% and 67%
# embryoids ([2]; 2-HNA 100 mg/l, mean): 1356
green plant (%) ([2]; 2-HNA 100 mg/l, mean): 63%
green plant (%) ([2]; 2-HNA 500 mg/l, % of embryoids transferred to regeneration medium, single repeats): 33%
# embryoids ([2]; 2-HNA 500 mg/l, mean): 66
green plant (%) ([2]; 2-HNA 500 mg/l, mean): 33%
green plant (%) ([2]; 2-HNA 1000 mg/l, % of embryoids transferred to regeneration medium, single repeats): 40% and 22%
# embryoids ([2]; 2-HNA 1000 mg/l, mean): 768
green plant (%) ([2]; 2-HNA 1000 mg/l, mean): 31%
2-HNA concentration at which number of induced embryoids and percentage of regenerated green plants were highest ([2]; tested 0, 100, 500 or 1000 mg/l): 100 mg/L
Number of embryoids (Pavon 76 microspores; pretreatment 2-HNA 100 mg/l, 2,4-D 0 mg/l, induction medium 2,4-D 0, 33° C. 46 hours, single repeats): 603 and 607
Number of embryoids (Pavon 76 microspores; [5]): 605
green plant (%) (Pavon 76 microspores; [5]): 19%
green plant (%) (Pavon 76 microspores; pretreatment 2-HNA 100 mg/l, 2,4-D 0 mg/l, single repeats): 13% and 25%

O=C(O)COc1ccc(Cl)cc1Cl [2,4-D, 2,4-dichlorophenoxyacetic acid]
2,4-D concentration during the pretreatment at which number of induced embryoids and percentage of regenerated green plants were highest ([3]; plus 2-HNA 100 mg/l): 1 mg/L
Number of embryoids ([3]; pretreatment 2,4-D 0.2 mg/l + 2-HNA 100 mg/l, 33° C. 70 hours, induction medium 2,4-D 1 mg/l, single repeats): 2088 and 2107
Number of embryoids [3, 6]: 2098
green plant (%) [3, 6]: 92%
green plant (%) [3, 7]: 83% and 100%
Number of embryoids ([3]; pretreatment 2,4-D 22.1 mg/l + 2-HNA 100 mg/l, 33° C. 70 hours, induction medium 2,4-D 1 mg/l, single repeats): 1908 and 1156
Number of embryoids [3, 8]: 1532
green plant (%) [3, 8]: 71%
green plant (%) [3, 9]: 63% and 79%
Number of embryoids ([3]; pretreatment 2,4-D 221 mg/l + 2-HNA 100 mg/l, 33° C. 70 hours, induction medium 2,4-D 1 mg/l, single repeats): 0
Number of embryoids ([3]; pretreatment 2,4-D 221 mg/l + 2-HNA 100 mg/l, mean): 0
2,4-D concentration during the pretreatment at which number of induced embryoids and percentage of regenerated green plants were highest (Pavon 76 microspores; plus 2-HNA 100 mg/l): 2.2 mg/L
Number of embryoids (Pavon 76 microspores; pretreatment 2,4-D 0.2 mg/l + 2-HNA 100 mg/l, induction medium 2,4-D 0.2 mg/l, single repeats): 1200 and 1121
Number of embryoids (Pavon 76 microspores; [6]): 1161
green plant (%) (Pavon 76 microspores; [6]): 9%
green plant (%) (Pavon 76 microspores; [7]): 9%
Number of embryoids (Pavon 76 microspores; pretreatment 2,4-D 2.2 mg/l + 2-HNA 100 mg/l, induction medium 2,4-D 0.2 mg/l, single repeats): 1675 and 1634
Number of embryoids (Pavon 76 microspores; [10]): 1655
green plant (%) (Pavon 76 microspores; [10]): 30%
Doubled-Haploid % (Pavon 76 microspores; [11]): 50% and 38%
green plant (%) (Pavon 76 microspores; [11]): 31% and 28%
Number of embryoids (Pavon 76 microspores; pretreatment 2,4-D 22.1 mg/l + 2-HNA 100 mg/l, induction medium 2,4-D 0.2 mg/l, single repeats): 1119 and 1012
Number of embryoids (Pavon 76 microspores; [8]): 1066
green plant (%) (Pavon 76 microspores; [8]): 18%
Doubled-Haploid % (Pavon 76 microspores; [9]): 17%
